Target: T1, yeast channel-forming VDAC isoform (YVDAC1) (Saccharomyces cerevisiae, UniProt P04840)
T1 construct: gene POR1; native protein from detergent (NP-40) extract of mitochondrial fraction; about 30 kDa; identified by LC/MS/MS against SGD ORF translations
T1 sequence (P04840 2-283): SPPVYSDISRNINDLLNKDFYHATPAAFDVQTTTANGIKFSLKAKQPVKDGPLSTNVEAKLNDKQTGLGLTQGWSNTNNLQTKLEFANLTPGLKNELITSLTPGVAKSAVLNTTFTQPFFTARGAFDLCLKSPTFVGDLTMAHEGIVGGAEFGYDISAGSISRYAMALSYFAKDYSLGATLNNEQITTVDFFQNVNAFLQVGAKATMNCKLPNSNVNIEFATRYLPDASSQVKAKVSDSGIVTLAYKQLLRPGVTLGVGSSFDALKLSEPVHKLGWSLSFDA
Assay type: biochemical

## COc1cc2c(cc1OC)OC(C)(C)C=C2 [Precocene II]
  affinity magnetic beads, elution and competition with free compound, SDS-PAGE, L: identification of YVDAC1 as the precocene II-binding protein in the yeast S. cerevisiae
